Laboratory results reported in the NIST ThermoML archive (doi:10.1016/j.tca.2014.07.002).
Numbers after ± are expanded uncertainties.

Assay: xn = mol fraction of the nth substance listed
Details: 101 kPa, Liquid, x1 = 0.423; for mass density: Buoyancy - hydrostatic balance

O=C([O-])[O-].[Na+].[Na+] [sodium carbonate] + [Cl-].[Na+]
Details	mass density [kg/m3]	viscosity [mPa·s]
973 K	1830 ± 40	17.02 ± 0.4
1023 K	1810 ± 40	9.285 ± 0.23
1073 K	1800 ± 40	5.31 ± 0.14
1123 K	1760 ± 40	2.468 ± 0.079
1173 K	1730 ± 40	1.219 ± 0.051
1223 K	1720 ± 30	–
1273 K	1680 ± 30	–
